Values joined by “and” are separate entries in the source; they are usually repeats but may differ in a detail not shown here. Identical values can stand only once.
What follows are compounds tested against NK1 receptor (Homo sapiens, UniProt P25103) (assay: NK1 receptor binding: inhibition of the NK1 agonist Substance P, Ki from percent of maximum specific binding). Details: inhibition constant from the concentration giving 50% inhibition of binding (Chang-Prusoff equation).
Source text: The in vitro and in vivo NK1, NK2 and NK3 activities of the compounds having the formula (I) can be determined by various procedures known in the art, such as a test for their ability to inhibit the activity of the NK1 agonist Substance P. The percent inhibition of neurokinin agonist activity is the difference between the percent of maximum specific binding (“MSB”) and 100%. The percent of MSB is defined by the following equation, wherein “dpm” represents “disintegrations per minute”:
[formula] The concentration at which the compound produces 50% inhibition of binding is then used to determine an inhibition constant (“Ki”) using the Chang-Prusoff equation. In vivo activity may be measured by inhibition of an agonist-induced foot tapping in a gerbil, as described in Science, 281, 1640–1695 (1998), which is herein incorporated by reference thereto.

NK1 receptor, sequence (P25103 whole entry, species assumed): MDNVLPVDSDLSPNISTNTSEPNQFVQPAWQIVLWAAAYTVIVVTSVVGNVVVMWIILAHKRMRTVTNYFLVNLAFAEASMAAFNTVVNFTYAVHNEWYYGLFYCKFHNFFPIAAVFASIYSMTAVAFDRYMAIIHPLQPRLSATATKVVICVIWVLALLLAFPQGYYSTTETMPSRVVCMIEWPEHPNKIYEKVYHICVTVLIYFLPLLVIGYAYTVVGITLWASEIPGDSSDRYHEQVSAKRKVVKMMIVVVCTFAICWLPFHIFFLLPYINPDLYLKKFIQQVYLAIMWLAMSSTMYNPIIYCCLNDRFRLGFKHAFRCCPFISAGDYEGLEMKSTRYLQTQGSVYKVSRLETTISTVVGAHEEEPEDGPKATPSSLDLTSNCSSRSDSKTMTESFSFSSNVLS

SMILES | Ki
C[C@@H](OCC1(c2ccccc2)CCN(N2CCCC2=O)CC1)c1cc(C(F)(F)F)cc(C(F)(F)F)c1 [Example 56] | 0.3 to 3 nM and ~0.3 nM
O=c1[nH]ncn1N1CCC(COCc2cc(C(F)(F)F)cc(C(F)(F)F)c2)(c2ccccc2)CC1 [Example 64] | 0.3 to 3 nM

The next lines start with the values.

Ki | SMILES
0.3 to 3 nM | O=C1CCCN1N1CCC(COCc2cc(C(F)(F)F)cc(C(F)(F)F)c2)(c2ccccc2)CC1 [Example 49]
0.3 to 3 nM | O=C1NCCN1N1CCC(COCc2cc(C(F)(F)F)cc(C(F)(F)F)c2)(c2ccccc2)CC1 [Example 51]
0.3 to 3 nM | O=C1CCCN1N1CCC(COC(CO)c2cc(C(F)(F)F)cc(C(F)(F)F)c2)(c2ccccc2)CC1 (centres unmarked) [Example 57]

— patent US7041682B2, “NK1 antagonists” (Schering Corporation, priority 2002, dated 2006)
